Source: ChEMBL document CHEMBL4303773 (Nature, 2020)
Activity calls are given as the source filed them. The calls are words filed in the database; no cut-off is given here.

What was measured:
Vero C1008 [1] = experiment: (§1) Cytotoxicity of compound against Vero E6 cells by MTT assay.; conditions: chlorocebus sabaeus, vero c1008
[2] = as §1; conditions: chlorocebus sabaeus, Vero E6 cells
SARS-CoV-2 [3] = conditions: Chlorocebus sabaeus; Vero C1008
Vero C1008 [4] = experiment: AUC (cytotoxicity %) of compound against Vero E6 cells by MTT assay.; format: toxicity, cell-based; conditions: chlorocebus sabaeus
SARS-CoV-2 [5] = experiment: microbe, parasite or virus in culture; format: functional, organism-based, Chlorocebus sabaeus; conditions: Severe acute respiratory syndrome coronavirus 2, Vero C1008, 48 h
SARS-CoV-2 [6] = experiment: IC90 for antiviral activity against SARS-CoV-2 in the Vero E6 cell line by measuring infectious viral titer of supernatent from compound-treated Vero E6 cells by Median Tissue Culture Infectious Dose (TCID)50 by the method of Reed and Muench; format: functional, Chlorocebus sabaeus; conditions: Severe acute respiratory syndrome coronavirus 2, Vero C1008
[7] = target: Sigma intracellular receptor 2 (Homo sapiens, UniProt Q5BJF2); experiment: Displacement of [3H]-DTG from the Sigma2 receptor
Sequence of Sigma intracellular receptor 2 (Q5BJF2 whole entry): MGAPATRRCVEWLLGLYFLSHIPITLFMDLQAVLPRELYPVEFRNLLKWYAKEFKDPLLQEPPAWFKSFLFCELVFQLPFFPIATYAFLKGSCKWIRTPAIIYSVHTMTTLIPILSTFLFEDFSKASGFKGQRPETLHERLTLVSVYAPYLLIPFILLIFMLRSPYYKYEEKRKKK

[8] = target: Sigma non-opioid intracellular receptor 1 (Homo sapiens, UniProt Q99720)
Sequence of Sigma non-opioid intracellular receptor 1 (Q99720 whole entry): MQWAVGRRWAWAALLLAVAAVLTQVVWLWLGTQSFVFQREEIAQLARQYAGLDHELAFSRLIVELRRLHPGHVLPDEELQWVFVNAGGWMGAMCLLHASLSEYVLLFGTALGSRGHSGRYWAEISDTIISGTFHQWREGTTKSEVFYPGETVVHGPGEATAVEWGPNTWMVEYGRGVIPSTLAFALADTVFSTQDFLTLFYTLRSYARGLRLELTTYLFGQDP
Description: Displacement of [3H]-pentazocin from the Sigma1 receptor

[9] = target: T1, Muscarinic acetylcholine receptor M4 (Homo sapiens, UniProt P08173); experiment: Activity of compound against Muscarinic acetylcholine receptor M4 (CHRM4) by displacement of 3H-QNB
T1 sequence (P08173 whole entry): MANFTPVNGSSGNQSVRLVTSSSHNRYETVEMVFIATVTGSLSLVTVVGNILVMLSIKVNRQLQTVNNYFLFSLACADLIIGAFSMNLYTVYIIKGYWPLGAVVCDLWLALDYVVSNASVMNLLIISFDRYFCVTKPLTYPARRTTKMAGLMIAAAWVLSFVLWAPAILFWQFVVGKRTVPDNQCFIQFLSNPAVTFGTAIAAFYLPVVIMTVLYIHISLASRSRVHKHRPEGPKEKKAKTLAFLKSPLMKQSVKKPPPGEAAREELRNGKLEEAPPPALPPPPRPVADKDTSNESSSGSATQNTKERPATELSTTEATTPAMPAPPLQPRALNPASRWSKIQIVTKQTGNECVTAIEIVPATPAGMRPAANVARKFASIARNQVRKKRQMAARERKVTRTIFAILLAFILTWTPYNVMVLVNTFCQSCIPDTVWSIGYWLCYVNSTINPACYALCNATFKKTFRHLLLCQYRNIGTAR

[10] = target: T2, Muscarinic acetylcholine receptor M5 (Homo sapiens, UniProt P08912); experiment: Activity of compound against Muscarinic acetylcholine receptor M5 (CHRM5) by displacement of 3H-QNB
T2 sequence (P08912 whole entry): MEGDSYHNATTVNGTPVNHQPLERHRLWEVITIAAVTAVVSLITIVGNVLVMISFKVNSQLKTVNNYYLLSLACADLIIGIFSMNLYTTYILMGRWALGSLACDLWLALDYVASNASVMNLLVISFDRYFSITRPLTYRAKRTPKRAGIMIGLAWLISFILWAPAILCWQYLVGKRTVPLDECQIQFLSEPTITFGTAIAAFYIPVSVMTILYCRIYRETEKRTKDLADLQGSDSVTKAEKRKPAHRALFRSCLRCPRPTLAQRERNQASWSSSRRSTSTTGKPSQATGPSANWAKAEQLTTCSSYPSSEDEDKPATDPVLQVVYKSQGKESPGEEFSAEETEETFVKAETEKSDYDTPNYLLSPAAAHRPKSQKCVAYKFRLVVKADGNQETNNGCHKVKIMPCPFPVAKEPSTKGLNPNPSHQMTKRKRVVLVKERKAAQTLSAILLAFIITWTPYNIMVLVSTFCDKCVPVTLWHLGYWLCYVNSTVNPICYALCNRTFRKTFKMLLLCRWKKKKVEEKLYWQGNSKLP

SMILES	CC50 [2]	AUC (SARS-CoV-2 [3])	AUC cytotoxicity (Vero C1008 [4])	further results
c1ccc(CNc2nc(NCc3ccccc3)c3ccccc3n2)cc1	–	–	–	pCC50 (Vero C1008 [1]): 5.19
Cc1sc2c(c1C)C(c1ccc(Cl)cc1)=N[C@@H](CC(=O)OC(C)(C)C)c1nnc(C)n1-2	~0.0668 µM	–	–	–
Cc1cc(OCCN2CCOCC2)nn1-c1ccc2ccccc2c1	~7.62 µM (inactive)	–	–	–
COC(=O)C1(c2ccc(C)cc2)CC1CN1CCC(O)(c2ccccc2)CC1 (stereo not given)	~4 µM (inactive)	–	–	–
O=C(O)/C(Cc1ccccc1[N+](=O)[O-])=N\Nc1nc(-c2ccc(Cl)c(Cl)c2)cs1	–	–	–	pCC50 (Vero C1008 [1]): 4.32
COc1cccc2c(NCc3ccccc3)nc(-n3c(N)nc4ccccc43)nc12	–	223	175.5	pCC50 (Vero C1008 [1]): 2.936
COc1ccc(-c2sc(NC(=O)C(C)(C)C)nc2C)cc1S(=O)(=O)Nc1ccc(O)cc1	–	–	–	pCC50 (Vero C1008 [1]): 5.25
O=C(c1ccc(-n2nnc3cccnc32)cc1)N(c1ncccc1Cl)[C@@H]1CCCNC1	–	–	–	IC50 (SARS-CoV-2 [5]): 7.59 µM; pCC50 (Vero C1008 [1]): 5.61
C[C@@H](C1CCCCC1)n1c(-c2cc3c(cc2Br)OCO3)nc2cc(C(=O)Nc3ccc(C#N)cc3)ccc21	~0.102 µM (inactive)	227	261.6	–
Cc1ncsc1-c1ccc(CNC(=O)[C@@H]2C[C@@H](O)CN2C(=O)[C@@H](NC(=O)COCCOCCOCCNC(=O)C[C@@H]2N=C(c3ccc(Cl)cc3)c3c(sc(C)c3C)-n3c(C)nnc32)C(C)(C)C)cc1	0.3 µM	–	–	–
COc1cccc2c1CCCC2CCCN1CCN(C2CCCCC2)CC1 (stereo not given)	–	–	–	IC90 (SARS-CoV-2 [6]): 0.278 µM
COc1cc(OC)c2c(=O)[nH]c(-c3cc(C)c(OCCO)c(C)c3)nc2c1 [APABETALONE]	~0.207 µM (inactive)	293	281.9	–
O=c1[nH]c(=O)n([C@H]2C[C@H](O)[C@@H](CO)O2)cc1/C=C/Br [BRIVUDINE]	–	255	244.3	–
CN(C)C(=O)COC(=O)Cc1ccc(OC(=O)c2ccc(NC(=N)N)cc2)cc1 [CAMOSTAT]	~3.63 µM (inactive)	251	276.3	–
C[C@H](CS)C(=O)N1CCC[C@H]1C(=O)O [CAPTOPRIL]	~1.23 µM (inactive)	276	271.9	–
Cc1cc2c(C(N)=O)cccc2n1-c1nc2c(c(NCc3ccccc3)n1)COCC2 [CB-5083]	–	280	–	–
CCN(CC)CCCC(C)Nc1ccnc2cc(Cl)ccc12 (stereo not given) [CHLOROQUINE]	–	–	–	Ki [7]: 0.501 µM; Ki [8]: 0.0794 µM; Ki [9]: 5.75 µM; Ki [10]: 21.9 µM
Clc1ccc(C(OCCN2CCCCC2)c2ccccc2)cc1 (stereo not given) [CLOPERASTINE]	~0.661 µM (active)	–	–	–
COc1cccc2c1C(=O)c1c(O)c3c(c(O)c1C2=O)C[C@@](O)(C(C)=O)C[C@@H]3O[C@H]1C[C@H](N)[C@H](O)[C@H](C)O1 [DAUNORUBICIN]	–	–	–	IC50 (SARS-CoV-2 [5]): ~0.214 µM
COc1ccc2c(c1)[C@]13CCCC[C@@H]1[C@H](C2)N(C)CC3 [DEXTROMETHORPHAN]	~0.871 µM	271	296.5	–
NCCCC[C@H](N[C@@H](CCc1ccccc1)C(=O)O)C(=O)N1CCC[C@H]1C(=O)O [LISINOPRIL ANHYDROUS]	~8.32 µM (inactive)	–	–	–

SMILES	CC50 [2]	AUC (SARS-CoV-2 [3])	AUC cytotoxicity (Vero C1008 [4])	further results
CC[C@H](C)C(=O)O[C@H]1C[C@@H](C)C=C2C=C[C@H](C)[C@H](CC[C@@H]3C[C@@H](O)CC(=O)O3)[C@H]21 [LOVASTATIN]	–	–	–	pCC50 (Vero C1008 [1]): 5.4
CCNC(=O)c1noc(-c2cc(C(C)C)c(O)cc2O)c1-c1ccc(CN2CCOCC2)cc1 [LUMINESPIB]	~0.0676 µM	172	161.6	–
CN(C)C(=N)NC(=N)N [METFORMIN]	–	293	–	IC50 (SARS-CoV-2 [5]): ~2.86 µM
N=C(N)Nc1ccc(C(=O)Oc2ccc3cc(C(=N)N)ccc3c2)cc1 [NAFAMOSTAT]	–	302	–	IC50 (SARS-CoV-2 [5]): ~39.8 µM (inactive)
CC(=O)Oc1ccccc1C(=O)Nc1ncc([N+](=O)[O-])s1 [NITAZOXANIDE]	–	–	–	IC50 (SARS-CoV-2 [5]): 2.82 µM
Cc1cc2c(s1)Nc1ccccc1N=C2N1CCN(C)CC1 [OLANZAPINE]	~2.88 µM (inactive)	–	–	–
CC(C)c1cc(C(=O)N2Cc3ccc(CN4CCN(C)CC4)cc3C2)c(O)cc1O [ONALESPIB]	~0.00166 µM	177	170.7	–
Cc1noc2c1-c1ccccc1C(c1ccc(Cl)cc1)=N[C@H]2CC(N)=O [PELABRESIB]	~0.0427 µM (inactive)	249	193.2	–
CC(C)CC(=O)N[C@H](C(=O)N[C@H](C(=O)N[C@@H](CC(C)C)[C@@H](O)CC(=O)N[C@@H](C)C(=O)N[C@@H](CC(C)C)[C@@H](O)CC(=O)O)C(C)C)C(C)C [PEPSTATIN]	~0.0195 µM (inactive)	313	262.3	–
O=c1[nH]c2ccccc2n1C1CCN(CCCC(c2ccc(F)cc2)c2ccc(F)cc2)CC1 [PIMOZIDE]	–	–	–	pCC50 (Vero C1008 [1]): 6.13
CCc1ccc(CCOc2ccc(CC3SC(=O)NC3=O)cc2)nc1 (stereo not given) [PIOGLITAZONE]	~3.63 µM (inactive)	272	236.6	–
NC(=O)c1ncn([C@@H]2O[C@H](CO)[C@@H](O)[C@H]2O)n1 [RIBAVIRIN]	~21.7 µM (inactive)	–	–	–
C[C@@H]1CN(CCCn2c3ccccc3c3ccccc32)C[C@H](C)N1 [RIMCAZOLE]	–	–	215.6	pCC50 (Vero C1008 [1]): 2.24
N#CC[C@H](C1CCCC1)n1cc(-c2ncnc3[nH]ccc23)cn1 [RUXOLITINIB]	–	316	248.3	–
CC(C)n1nc(-c2ccc3oc(N)nc3c2)c2c(N)ncnc21 [SAPANISERTIB]	0.00124 µM	329	102	–
O=C(O)c1ccc2c(c1)nc(Nc1cccc(Cl)c1)c1ccncc12 [SILMITASERTIB]	–	216	225.5	pCC50 (Vero C1008 [1]): 5.5
CO[C@H]1C[C@@H]2CC[C@@H](C)[C@@](O)(O2)C(=O)C(=O)N2CCCC[C@H]2C(=O)O[C@H]([C@H](C)C[C@@H]2CC[C@@H](O)[C@H](OC)C2)CC(=O)[C@H](C)/C=C(\C)[C@@H](O)[C@@H](OC)C(=O)[C@H](C)C[C@H](C)/C=C/C=C/C=C/1C [SIROLIMUS]	~0.000479 µM	–	–	–
Cc1cc(Nc2cc(N)ncn2)c(=O)n2c1C(=O)NC21CCCCC1 [TOMIVOSERTIB]	–	231	245.9	pCC50 (Vero C1008 [1]): 5.26
CCCC(CCC)C(=O)O [VALPROIC ACID]	–	300	235.1	–
COc1cc2c(c(OC)n1)[C@]1(O)[C@H](O)[C@H](CN(C)C)[C@@H](c3ccccc3)[C@]1(c1ccc(C#N)cc1)O2 [ZOTATIFIN]	0.00512 µM (active)	–	–	IC90 (SARS-CoV-2 [6]): 0.037 µM
